Where a name gives a salt, the structure may show the parent alone. Marks after values point to notes of the source that are not given here. Blank lines part the entries; values can stand above or below the compound they belong to.
How the values were obtained:
female rats = test: Plasma metabolite profiling (GC-MS, LC-MS, SPE-LC-MS) in female rats dosed once daily over 28 days (OECD 407); format: in vivo, rat; set-up: key to 5-O-Methylsphingosine (d18:1) / Isopalmitic acid (C16:0) / Valine / Alanine / Ketoleucine / Serine / Lactate / Arginine: ratio of treated group mean to untreated control mean; conditions: for Alanine / Arginine / Ketoleucine / Lactate / Proline / Serine / Valine: Table 17b
Outline: (§1)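 Polar and lipid fractions profiled by GC-MS and LC-MS/MRM, steroids by online SPE-LC-MS; pool-normalized data compared to controls by Welch test as treatment ratios and p-values.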

male rats = test: Plasma metabolite profiling (GC-MS, LC-MS, SPE-LC-MS) in male rats dosed once daily over 28 days (OECD 407); format: in vivo, rat; conditions: high dose; for Cholesterol / Choline plasmalogen No 02 / Lignoceric acid (C24:0) / Sphingomyelin (d18:1, C16:0) / Sphingomyelin (d18:2, C16:0) / erythro-Sphingosine (d18:1): Table 14b
Outline: as §1

[1] = female rats, plasma, high dose, day 28
[2] = female rats, plasma, high dose, day 7
[3] = female rats, plasma, high dose, day 14

Cholesterol (female rats; f7, high dose, Table 14a): 0.17 *
Choline plasmalogen No 02 (female rats; f7, high dose, Table 14a): 0.3 *
Lignoceric acid (C24:0) (female rats; f7, high dose, Table 14a): 0.27^
Sphingomyelin (d18:1, C16:0) (female rats; f7, high dose, Table 14a): 0.12 *
Sphingomyelin (d18:2, C16:0) (female rats; f7, high dose, Table 14a): 0.19 *
erythro-Sphingosine (d18:1) (female rats; f7, high dose, Table 14a): 0.03 *
Alanine, ratio versus control (male rats; male rats, plasma, day 7): 0.88 *
Androstenedione, ratio versus control (male rats; male rats, plasma, day 7): 0.42 *
Cholesterol, ratio versus control (male rats; male rats, plasma, day 7): 0.28 *
Glycine, ratio versus control (male rats; male rats, plasma, day 7): 0.86 *
Heptadecanoic acid (C17:0), ratio versus control (male rats; male rats, plasma, day 7): 0.56 *
Testosterone, ratio versus control (male rats; male rats, plasma, day 7): 0.59 *
Threonine, ratio versus control (male rats; male rats, plasma, day 7): 0.88 *
Uric acid, ratio versus control (male rats; male rats, plasma, day 7): 0.7 *
alpha-Tocopherol, ratio versus control (male rats; male rats, plasma, day 7): 0.32 *
Compound: C#C[C@]1(OC(C)=O)CC[C@H]2[C@@H]3CCC4=CC(=O)CC[C@@H]4[C@H]3CC[C@@]21C [Norethindrone acetate]

Compound: ACTH: adrenocorticotropin (ACTH) produced in the adenohypophysis of the pituitary gland (SYSMEHFRWGKPVGKKRRPVKVYPNGAEDESAEAFPLEF; Corticotropin; UniProt P01189 138-176, looked up)
3-Hydroxybutyrate, ratio versus control (female rats; [1]): 0.85 *
5-Oxoproline, ratio versus control (female rats; [1]): 1.05 *
18-Hydroxy-11-deoxycorticosterone, ratio versus control (female rats; [1]): 0.69 *
21-Hydroxyprogesterone (11-Deoxycorticosterone), ratio versus control (female rats; [1]): 0.31 *
Biotin, ratio versus control (female rats; [1]): 0.7 *
Choline plasmalogen No 03, ratio versus control (female rats; [1]): 0.77 *
Citrate, ratio versus control (female rats; [1]): 0.92 *
Corticosterone, ratio versus control (female rats; [1]): 0.67 *
Ketoleucine, ratio versus control (female rats; [1]): 0.76 *
Lactate, ratio versus control (female rats; [1]): 0.68 *
Lysophosphatidylcholine (C18:2), ratio versus control (female rats; [1]): 1.06 *
Lysophosphatidylcholine (C20:4), ratio versus control (female rats; [1]): 1.11 *
Malate, ratio versus control (female rats; [1]): 0.76 *
Mannose, ratio versus control (female rats; [1]): 1.04 *
TAG No 059, ratio versus control (female rats; [1]): 1.62 *
Tyrosine, ratio versus control (female rats; [1]): 1.26 *
alpha-Tocopherol, ratio versus control (female rats; [1]): 0.95 *
3,4-Dihydroxyphenylalanine (DOPA), ratio versus control (male rats; male rats, plasma, day 28): 0.86 *
3-Hydroxybutyrate, ratio versus control (male rats; male rats, plasma, day 28): 0.65 *
18-Hydroxy-11-deoxycorticosterone, ratio versus control (male rats; male rats, plasma, day 28): 0.43 *
21-Hydroxyprogesterone (11-Deoxycorticosterone), ratio versus control (male rats; male rats, plasma, day 28): 0.18 *
Biotin, ratio versus control (male rats; male rats, plasma, day 28): 0.64 *
Citrate, ratio versus control (male rats; male rats, plasma, day 28): 0.82 *
Corticosterone, ratio versus control (male rats; male rats, plasma, day 28): 0.42 *
Ketoleucine, ratio versus control (male rats; male rats, plasma, day 28): 0.81 *
Lysophosphatidylethanolamine (C22:5), ratio versus control (male rats; male rats, plasma, day 28): 1.22 *
Phosphatidylcholine No 04, ratio versus control (male rats; male rats, plasma, day 28): 0.8 *
Progesterone, ratio versus control (male rats; male rats, plasma, day 28): 0.14 *
Urea, ratio versus control (male rats; male rats, plasma, day 28): 1.28 *

Glycine, ratio versus control (female rats; [2]): 1.53 *
Lysine, ratio versus control (female rats; [2]): 0.8 *
Lysophosphatidylcholine (C17:0), ratio versus control (female rats; [2]): 0.74 *
Phosphatidylcholine (C18:0, C20:3), ratio versus control (female rats; [2]): 0.73 *
Phosphatidylcholine (C18:0, C22:6), ratio versus control (female rats; [2]): 0.87 *
Proline, ratio versus control (female rats; [2]): 1.16 *
TAG (C16:0, C18:2), ratio versus control (female rats; [2]): 2.05 *
TAG (C18:2, C18:3), ratio versus control (female rats; [2]): 1.84 *
TAG (DAG-Fragment), ratio versus control (female rats; [2]): 1.8 *
TAG No 059, ratio versus control (female rats; [2]): 1.61 *
Thyroxine (T4), ratio versus control (female rats; [2]): 1.36^
Coenzyme Q9, ratio versus control (female rats; [3]): 1.29 *
Glycine, ratio versus control (female rats; [3]): 1.51 *
Lysine, ratio versus control (female rats; [3]): 0.61 *
Lysophosphatidylcholine (C17:0), ratio versus control (female rats; [3]): 0.72 *
Phosphatidylcholine (C16:0, C20:5), ratio versus control (female rats; [3]): 1.25 *
Phosphatidylcholine (C18:0, C20:3), ratio versus control (female rats; [3]): 0.86 *
Phosphatidylcholine (C18:0, C22:6), ratio versus control (female rats; [3]): 0.85 *
Proline, ratio versus control (female rats; [3]): 1.2 *
TAG (C16:0, C18:2), ratio versus control (female rats; [3]): 1.27 *
TAG (C18:2, C18:3), ratio versus control (female rats; [3]): 1.31 *
TAG (DAG-Fragment), ratio versus control (female rats; [3]): 1.4 *
TAG No 059, ratio versus control (female rats; [3]): 1.47 *
Thyroxine (T4), ratio versus control (female rats; [3]): 2.5 *
Coenzyme Q9, ratio versus control (female rats; [1]): 1.31 *
Glycine, ratio versus control (female rats; [1]): 1.4 *
Lysine, ratio versus control (female rats; [1]): 0.81 *
Lysophosphatidylcholine (C17:0), ratio versus control (female rats; [1]): 0.72 *
Phosphatidylcholine (C18:0, C20:3), ratio versus control (female rats; [1]): 0.81 *
Phosphatidylcholine (C18:0, C22:6), ratio versus control (female rats; [1]): 0.72 *
TAG (C16:0, C18:2), ratio versus control (female rats; [1]): 1.95 *
TAG (C18:2, C18:3), ratio versus control (female rats; [1]): 1.64 *
TAG (DAG-Fragment), ratio versus control (female rats; [1]): 1.76 *
TAG No 059, ratio versus control (female rats; [1]): 1.61 *
Thyroxine (T4), ratio versus control (female rats; [1]): 1.57 *
Coenzyme Q9, ratio versus control (female rats; rat, in vivo): 1.18 *
Proline, ratio versus control (female rats; rat, in vivo): 1.14 *
Cholesterol (male rats; m7): 0.44
Choline plasmalogen No 02 (male rats; m7): 0.67
Lignoceric acid (C24:0) (male rats; m7): 0.45
Sphingomyelin (d18:1, C16:0) (male rats; m7): 0.52
Sphingomyelin (d18:2, C16:0) (male rats; m7): 0.82
erythro-Sphingosine (d18:1) (male rats; m7): 0.38
Cholesterol (male rats; m14): 0.47
Choline plasmalogen No 02 (male rats; m14): 0.69
Lignoceric acid (C24:0) (male rats; m14): 0.39
Sphingomyelin (d18:1, C16:0) (male rats; m14): 0.62
Sphingomyelin (d18:2, C16:0) (male rats; m14): 0.78
erythro-Sphingosine (d18:1) (male rats; m14): 0.49
Cholesterol (male rats; m28): 0.63
Choline plasmalogen No 02 (male rats; m28): 0.65
Lignoceric acid (C24:0) (male rats; m28): 0.64
Sphingomyelin (d18:1, C16:0) (male rats; m28): 0.65
Sphingomyelin (d18:2, C16:0) (male rats; m28): 0.63
erythro-Sphingosine (d18:1) (male rats; m28): 0.57
Compound: O=C(c1ccc(OCCN2CCCCC2)cc1)c1c(-c2ccc(O)cc2)sc2cc(O)ccc12 [Raloxifene Hydrochloride]

Isopalmitic acid (C16:0) (female rats; f7, female rats, high dose, Table 17a): 1.46 *
Alanine (female rats; f7, female rats, high dose): 0.83
Arginine (female rats; f7, female rats, high dose): 0.85
Ketoleucine (female rats; f7, female rats, high dose): 0.72
Lactate (female rats; f7, female rats, high dose): 0.56
Proline (female rats; f7, female rats, high dose): 0.91
Serine (female rats; f7, female rats, high dose): 1
Valine (female rats; f7, female rats, high dose): 0.92
Alanine (female rats; f14, female rats, high dose): 0.81
Arginine (female rats; f14, female rats, high dose): 0.73
Ketoleucine (female rats; f14, female rats, high dose): 0.71
Lactate (female rats; f14, female rats, high dose): 1.24
Proline (female rats; f14, female rats, high dose): 0.81
Serine (female rats; f14, female rats, high dose): 0.91
Valine (female rats; f14, female rats, high dose): 0.72
Isopalmitic acid (C16:0) (female rats; f28, female rats, high dose, Table 17a): 1.52 *
Alanine (female rats; f28, female rats, high dose): 0.92
Arginine (female rats; f28, female rats, high dose): 0.93
Ketoleucine (female rats; f28, female rats, high dose): 0.67
Lactate (female rats; f28, female rats, high dose): 0.65
Proline (female rats; f28, female rats, high dose): 1.03
Serine (female rats; f28, female rats, high dose): 1.06
Valine (female rats; f28, female rats, high dose): 0.98
Isopalmitic acid (C16:0) (female rats; rat, in vivo): 1.41 *
Compound: CN(CCOc1ccc(CC2SC(=O)NC2=O)cc1)c1ccccn1 (stereo not drawn) [Rosiglitazone maleate]

Reference: patent publication US20150010928A1, “MEANS AND METHODS FOR ASSESSING AN ENDOCRINE DISEASE OR DISORDER” (priority 2012, published 2015)
